Assay results reported in patent publication US8642063B2, “Implantable medical device coatings with biodegradable elastomer and releasable taxane agent” (priority 2008, dated 2014).

Test: Solubility / elution of paclitaxel solid forms in porcine serum
Type: physicochemical
Details: 37° C.
Description: For example, amorphous and dihydrate taxane solid forms may be readily identified and differentiated by visual appearance and elution rates. […] In addition, the presence of different solid forms of the taxane agent in a medical device coating can be identified and quantified by contacting the coating with an elution medium that selectively dissolves one solid form more readily than a second solid form. In solution with an elution medium, such as porcine serum or blood, the presence of the taxane agent can be identified, for example by using ultraviolet (UV) spectroscopy or high pressure liquid chromatography (HPLC). […] Non-solvated solid forms include amorphous or anhydrous solid forms.
The amount of taxane agent released from coating into the elution medium, and the rate of release of the taxane agent from a coating, can be measured by any suitable method that allows for measurement of the release of the taxane agent with a desired level of accuracy and precision. The taxane agent in the coating can be determined by dissolving the coating in a suitable elution medium and subsequently detecting the amount of taxane agent in the elution medium. The taxane agent dissolved in the elution medium can be detected using any suitable technique. […] This correlation involves the linear relationship between optical density (absorbance) and concentration of an absorbing species. […]

solubility after 24 hours in porcine serum: less than 40 wt %
SMILES: CC(=O)O[C@H]1C(=O)[C@@]2(C)[C@H]([C@H](OC(=O)c3ccccc3)[C@]3(O)C[C@H](OC(=O)[C@H](O)[C@@H](NC(=O)c4ccccc4)c4ccccc4)C(C)=C1C3(C)C)[C@]1(OC(C)=O)CO[C@@H]1C[C@@H]2O [dihydrate paclitaxel, paclitaxel]
